Assay [1] relates to comprehensive panel of kinases (456 kinases). The assay is described as follows: Kinase panel binding screen (456 kinases, PIKfyve not included). The settings on record: screening concentration 1 μM. The source says: Next, apilimod was screened against a comprehensive panel of kinases (PIKfyve not included).
The test system of assay [2] is PI(3,5)P2 in H4 neuroglioma cells. The assay is described as follows: Immunostaining of PI(3,5)P2 in H4 neuroglioma cells. Type of assay: cell-based, human. Conditions: after 24 h. The source says:
(§1) PIKfyve produces the lipid products PI(3,5)P2 and PI5P, which in turn serve to establish membrane identity and control endolysosomal dynamics. Studies have shown that the PI(3,5)P2 depletion arising from inhibition of PIKfyve produces a swollen endolysosome phenotype. […] This phenotype was reversible, and cell lines reverted to normal appearance within 3-4 days after drug removal.

Assay [3] concerns H4 neuroglioma cells. The assay is described as follows: DIC imaging of endolysosomal (vacuole) phenotype in H4 neuroglioma cells. The assay is classed as cell-based, human.
Source text: FIG. 4: Left: DIC images of H4 transduced with either non-targeting shRNA (control) or hairpin targeted to the PIKFYVE gene (shPIKFYVE). Right: Viability of H4 cells after the induction of either control or PIKFYVE shRNA with doxycycline.
as §1

Each structure is given as a SMILES string.

The source of these data is US20180036420A1, “METHODS FOR ENHANCING THE DELIVERY OF MOLECULES ACROSS THE BLOOD BRAIN BARRIER” (LAM Therapeutics, Inc., priority 2016, published 2018).

In the case of `Cc1cccc(/C=N/Nc2cc(N3CCOCC3)nc(OCCc3ccccn3)n2)c1` [apilimod], the “binding to kinases of the panel” value in assay [1] is reported as “did not bind to any of the 456 kinases tested”. In addition, the “decrease of PI(3,5)P2” value in assay [2] was about 70%. The “endolysosomal (vacuole) phenotype” value in assay [3] (H4 neuroglioma cells, 100 nM apilimod, 24 hrs (FIG. 3)) is “striking swollen endolysosomal (vacuole) phenotype”. Moreover, the “time to revert to normal appearance after drug removal” value in assay [3] (after drug removal) was 3 to 4 days.
